Experimental data: US9409966B2, “Glucagon-like peptide-1 derivatives and their pharmaceutical use” (priority 2007, dated 2016)
*1 amine or outer side, *2 acyl side, *3 side chain or, on linkers, in order; H or OH if unused. Where a SMILES comes first, the peptide text is derived from it. Side-chain parts run from the residue outwards. [ ]: non-standard residue; d: D form. The star is where a group is joined. X2 = O=C(O)CCCCCCCCCCCCCCCCC(=O)N[C@@H](CCC(=O)NCCOCCOCC(=O)NCCOCCOCC(=O)N[C@@H](CCCCN*)C(=O)O)C(=O)O; X1 = O=C(CCCCCCCCCCCCCCCc1nnn[nH]1)NS(=O)(=O)CCCC(=O)*; C20 diacid = O=C(O)CCCCCCCCCCCCCCCCCCC(=O)*; C16 diacid = O=C(O)CCCCCCCCCCCCCCC(=O)*; γGlu = O=C(O)[C@H](CCC(=O)[*:2])N[*:1]; Desaminohistidyl = O=C(CCc1c[nH]cn1)*; βAsp = O=C(O)[C@H](CC(=O)[*:2])N[*:1]; AEEA = NCCOCCOCC(=O)O; Aib = CC(C)(N)C(=O)O; Inp = O=C(O)C1CCNCC1; GABA = NCCCC(=O)O

Each molecule was assayed against human serum albumin (HSA) (Homo sapiens, UniProt P02768) (assay: Albumin binding affinity, competition scintillation proximity assay (SPA)). Conditions: not given.
human serum albumin (HSA), sequence (P02768 25-609): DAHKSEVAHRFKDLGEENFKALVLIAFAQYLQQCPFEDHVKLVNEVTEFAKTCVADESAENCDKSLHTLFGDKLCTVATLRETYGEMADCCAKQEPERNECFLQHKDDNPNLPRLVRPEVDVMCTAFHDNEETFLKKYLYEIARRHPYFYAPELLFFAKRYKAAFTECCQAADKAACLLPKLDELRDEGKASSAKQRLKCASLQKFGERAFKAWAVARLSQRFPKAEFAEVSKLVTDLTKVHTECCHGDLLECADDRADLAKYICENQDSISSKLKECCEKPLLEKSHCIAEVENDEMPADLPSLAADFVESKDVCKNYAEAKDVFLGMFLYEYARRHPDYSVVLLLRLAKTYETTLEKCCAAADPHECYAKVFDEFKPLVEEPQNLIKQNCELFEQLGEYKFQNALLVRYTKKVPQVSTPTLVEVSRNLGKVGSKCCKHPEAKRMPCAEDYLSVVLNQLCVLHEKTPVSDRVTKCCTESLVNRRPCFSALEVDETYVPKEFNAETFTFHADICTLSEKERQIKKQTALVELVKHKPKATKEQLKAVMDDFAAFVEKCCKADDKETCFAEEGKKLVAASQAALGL

| SMILES | EC50 [nM] |
| --- | --- |
| CC[C@H](C)[C@H](NC(=O)[C@H](Cc1cccc(C(F)(F)F)c1)NC(=O)[C@H](CCC(=O)O)NC(=O)[C@H](CCCNC(=N)N)NC(=O)[C@H](C)NC(=O)[C@H](C)NC(=O)[C@H](CCC(N)=O)NC(=O)[C@H](CCC(=O)O)NC(=O)[C@H](CCC(=O)O)NC(=O)[C@H](CC(C)C)NC(=O)[C@H](Cc1ccc(O)cc1)NC(=O)[C@H](CO)NC(=O)[C@H](CO)NC(=O)[C@@H](NC(=O)[C@H](CC(=O)O)NC(=O)[C@H](CO)NC(=O)[C@@H](NC(=O)[C@H](Cc1ccccc1)NC(=O)[C@@H](NC(=O)CNC(=O)[C@H](CCC(=O)O)NC(=O)[C@H](C)NC(=O)CCc1c[nH]cn1)[C@@H](C)O)[C@@H](C)O)C(C)C)C(=O)N[C@@H](C)C(=O)N[C@@H](Cc1c[nH]c2ccccc12)C(=O)N[C@@H](CC(C)C)C(=O)N[C@H](C(=O)N[C@@H](CCCNC(=N)N)C(=O)NCC(=O)N[C@@H](CCCNC(=N)N)C(=O)N[C@@H](CCCCNC(=O)COCCOCCNC(=O)COCCOCCNC(=O)C[C@@H](NC(=O)C1CCN(C(=O)CCCCCCCCCCCCCCCCC(=O)O)CC1)C(=O)O)C(N)=O)C(C)C [Example 3, N-epsilon37-[2-(2-[2-(2-[2-(2-((R)-3-[1-(17-Carboxyheptadecanoyl)piperidin-4-ylcarbonylamino]3-carboxypropionylamino)ethoxy)ethoxy]acetylamino)ethoxy]ethoxy)acetyl][DesaminoHis 7,Glu22,Arg26,Arg34,Phe(m-CF3)28]GLP-1-(7-37)amide] | 1500 to 2000 |
| CC[C@H](C)[C@H](NC(=O)[C@H](Cc1ccccc1)NC(=O)[C@H](CCC(=O)O)NC(=O)[C@H](CCCNC(=N)N)NC(=O)[C@H](C)NC(=O)[C@H](C)NC(=O)[C@H](CCC(N)=O)NC(=O)[C@H](CCC(=O)O)NC(=O)[C@H](CCC(=O)O)NC(=O)[C@H](CC(C)C)NC(=O)[C@H](Cc1ccc(O)cc1)NC(=O)[C@H](CO)NC(=O)[C@H](CO)NC(=O)[C@@H](NC(=O)[C@H](CC(=O)O)NC(=O)[C@H](CO)NC(=O)[C@@H](NC(=O)[C@H](Cc1ccccc1)NC(=O)[C@@H](NC(=O)CNC(=O)[C@H](CCC(=O)O)NC(=O)C(C)(C)NC(=O)[C@@H](N)Cc1c[nH]cn1)[C@@H](C)O)[C@@H](C)O)C(C)C)C(=O)N[C@@H](CCCCNC(=O)COCCOCCNC(=O)COCCOCCNC(=O)C[C@H](NC(=O)C1CCN(C(=O)CCCCCCCCCCCCCCCCCCC(=O)O)CC1)C(=O)O)C(=O)N[C@@H](Cc1c[nH]c2ccccc12)C(=O)N[C@@H](CC(C)C)C(=O)N[C@H](C(=O)N[C@@H](CCCCN)C(=O)NCC(=O)N[C@@H](CCCNC(=N)N)C(=O)NCC(=O)O)C(C)C [Example 4, N-epsilon30{2-[2-(2-{2-[2-((S)-3-carboxy-3-{[1-(19-carboxynonadecanoyl)piperidine-4-carbonyl]amino}propionylamino)ethoxy]ethoxy}acetylamino)ethoxy]ethoxy}acetyl [Aib8,Glu22,Arg26,Lys30]GLP-1-(7-37)] | 200 to 400 |
| CC[C@H](C)[C@H](NC(=O)[C@H](Cc1ccccc1)NC(=O)[C@H](CCC(=O)O)NC(=O)[C@H](CCCNC(=N)N)NC(=O)[C@H](C)NC(=O)[C@H](C)NC(=O)[C@H](CCC(N)=O)NC(=O)[C@H](CCC(=O)O)NC(=O)[C@H](CCC(=O)O)NC(=O)[C@H](CC(C)C)NC(=O)[C@H](Cc1ccc(O)cc1)NC(=O)[C@H](CO)NC(=O)[C@H](CO)NC(=O)[C@@H](NC(=O)[C@H](CC(=O)O)NC(=O)[C@H](CO)NC(=O)[C@@H](NC(=O)[C@H](Cc1ccccc1)NC(=O)[C@@H](NC(=O)CNC(=O)[C@H](CCC(=O)O)NC(=O)C(C)(C)NC(=O)[C@@H](N)Cc1c[nH]cn1)[C@@H](C)O)[C@@H](C)O)C(C)C)C(=O)N[C@@H](C)C(=O)N[C@@H](CCCCNC(=O)COCCOCCNC(=O)COCCOCCNC(=O)C[C@H](NC(=O)C1CCN(C(=O)CCCCCCCCCCCCCCCCCCC(=O)O)CC1)C(=O)O)C(=O)N[C@@H](CC(C)C)C(=O)N[C@H](C(=O)N[C@@H](CCCNC(=N)N)C(=O)NCC(=O)N[C@@H](CCCNC(=N)N)C(=O)NCC(=O)O)C(C)C [Example 6, N-epsilon31-(2-{2-[2-(2-{2-[2-((S)-3-Carboxy-3-{[1-(19-carboxy-nonadecanoyl)piperidine-4-carbonyl]amino}propionylamino)ethoxy]ethoxy}acetylamino)ethoxy]ethoxy}acetyl)[Aib8,Glu22,Arg26,Lys31,Arg34]GLP-1-(7-37)] (H-H[Aib]EGTFTSDVSSYLEEQAAREFIAK([AEEA-AEEA-βAsp-Inp-C20 diacid])LVRGRG-OH) | 200 to 400 |
| CC[C@H](C)[C@H](NC(=O)[C@H](Cc1ccccc1)NC(=O)[C@H](CCC(=O)O)NC(=O)[C@H](CCCNC(=N)N)NC(=O)[C@H](C)NC(=O)[C@H](C)NC(=O)[C@H](CCC(N)=O)NC(=O)[C@H](CCC(=O)O)NC(=O)[C@H](CCC(=O)O)NC(=O)[C@H](CC(C)C)NC(=O)[C@H](Cc1ccc(O)cc1)NC(=O)[C@H](CO)NC(=O)[C@H](CO)NC(=O)[C@@H](NC(=O)[C@H](CC(=O)O)NC(=O)[C@H](CO)NC(=O)[C@@H](NC(=O)[C@H](Cc1ccccc1)NC(=O)[C@@H](NC(=O)CNC(=O)[C@H](CCC(=O)O)NC(=O)C(C)(C)NC(=O)[C@@H](N)Cc1c[nH]cn1)[C@@H](C)O)[C@@H](C)O)C(C)C)C(=O)N[C@@H](C)C(=O)N[C@@H](Cc1c[nH]c2ccccc12)C(=O)N[C@@H](CC(C)C)C(=O)N[C@H](C(=O)N[C@@H](CCCNC(=N)N)C(=O)NCC(=O)N[C@@H](CCCNC(=N)N)C(=O)NCCCC[C@H](NC(=O)COCCOCCNC(=O)COCCOCCNC(=O)CC[C@H](NC(=O)CCCCCCCCCCCCCCCCC(=O)O)C(=O)O)C(=O)O)C(C)C [Example 28, N-alpha37-[2-(2-{2-[2-(2-{2-[(S)-4-Carboxy-4-(17-carboxy-heptadecanoylamino)-butyrylamino]-ethoxy}-ethoxy)-acetylamino]-ethoxy}-ethoxy)-acetyl] [Aib8,Glu22,Arg26,Arg34,epsilon-Lys37]GLP-1-(7-37)peptide] (H-H[Aib]EGTFTSDVSSYLEEQAAREFIAWLVRGR-X2) | 200 to 400 |
| CC[C@H](C)[C@H](NC(=O)[C@H](Cc1ccccc1)NC(=O)[C@H](CCC(=O)O)NC(=O)[C@H](CCCNC(=N)N)NC(=O)[C@H](C)NC(=O)[C@H](C)NC(=O)[C@H](CCC(N)=O)NC(=O)[C@H](CCC(=O)O)NC(=O)[C@H](CCC(=O)O)NC(=O)[C@H](CC(C)C)NC(=O)[C@H](Cc1ccc(O)cc1)NC(=O)[C@H](CO)NC(=O)[C@H](CO)NC(=O)[C@@H](NC(=O)[C@H](CC(=O)O)NC(=O)[C@H](CO)NC(=O)[C@@H](NC(=O)[C@H](Cc1ccccc1)NC(=O)[C@@H](NC(=O)CNC(=O)[C@H](CCC(=O)O)NC(=O)[C@H](C)NC(=O)CCc1c[nH]cn1)[C@@H](C)O)[C@@H](C)O)C(C)C)C(=O)N[C@@H](CCC(=O)O)C(=O)N[C@@H](Cc1c[nH]c2ccccc12)C(=O)N[C@@H](CC(C)C)C(=O)N[C@H](C(=O)N[C@@H](CCCNC(=N)N)C(=O)NCC(=O)N[C@@H](CCCCNC(=O)COCCOCCNC(=O)COCCOCCNC(=O)CC[C@H](NC(=O)CCCCCCCCCCCCCCC(=O)O)C(=O)O)C(=O)NCC(=O)N[C@@H](CCC(=O)O)C(=O)N[C@@H](CCCCN)C(=O)O)C(C)C [Example 30, N-epsilon36-[2-(2-{2-[2-(2-{2-[(S)-4-carboxy-4-(15-carboxy-pentadecanoylamino)-butyrylamino]-ethoxy}-ethoxy)-acetylamino]-ethoxy}-ethoxy)-acetyl] [desaminoHis7, Glu22, Arg26, Glu30, Arg34, Lys36]GLP-1-(7-37)-Glu-Lys peptide] (Desaminohistidyl-AEGTFTSDVSSYLEEQAAREFIEWLVRGK([AEEA-AEEA-γGlu-C16 diacid])GEK-OH) | > 2000 |

Same assay, conditions: human, pH 7.4

| SMILES | EC50 at 20 hours [nM] |
| --- | --- |
| CC[C@H](C)[C@H](NC(=O)[C@H](Cc1ccccc1)NC(=O)[C@H](CCC(=O)O)NC(=O)[C@H](CCCNC(=N)N)NC(=O)[C@H](C)NC(=O)[C@H](C)NC(=O)[C@H](CCC(N)=O)NC(=O)[C@H](CCC(=O)O)NC(=O)[C@H](CCC(=O)O)NC(=O)[C@H](CC(C)C)NC(=O)[C@H](Cc1ccc(O)cc1)NC(=O)[C@H](CO)NC(=O)[C@H](CO)NC(=O)[C@@H](NC(=O)[C@H](CC(=O)O)NC(=O)[C@H](CO)NC(=O)[C@@H](NC(=O)[C@H](Cc1ccccc1)NC(=O)[C@@H](NC(=O)CNC(=O)[C@H](CCC(=O)O)NC(=O)C(C)(C)NC(=O)[C@@H](N)Cc1c[nH]cn1)[C@@H](C)O)[C@@H](C)O)C(C)C)C(=O)N[C@@H](CCC(=O)O)C(=O)N[C@@H](Cc1c[nH]c2ccccc12)C(=O)N[C@@H](CC(C)C)C(=O)N[C@H](C(=O)N[C@@H](CCCCN)C(=O)NCC(=O)N[C@@H](CCCNC(=N)N)C(=O)N1CCC[C@H]1C(=O)N[C@@H](CCCCNC(=O)COCCOCCNC(=O)CC[C@H](NC(=O)CC[C@H](NC(=O)CCCNC(=O)CCCS(=O)(=O)NC(=O)CCCCCCCCCCCCCCCc1nnn[nH]1)C(=O)O)C(=O)O)C(=O)O)C(C)C [Example 14, [Aib8,Glu22,Arg26,Glu30,Pro37]GLP-1-(7-37)Lys [2-(2-{2-[4-Carboxy-4-(4-carboxy-4-{4-[4-(16-1H-tetrazol-5-yl-hexadecanoylsulfamoyl)butyrylamino]butyrylamino}butyrylamino)butyrylamino]ethoxy}ethoxy)acetyl]] (H-H[Aib]EGTFTSDVSSYLEEQAAREFIEWLVKGRPK([AEEA-γGlu-γGlu-GABA-X1])-OH; N-terminus and C-terminus assumed) | 150 to 200 |
